Experiments:
[1] = Leaching of rare-earth elements from mixed rare-earth hydroxide; conditions: RT, 26 h, 20 mM lixiviant; for selectivity of leaching of REEs (percent dissolution): pH 8.2, CHES/CAPS buffer, 15 mg/mL (La,Nd,Eu,Dy,Y)OH3, FIG. 11
Description: A solution of CHES (400 mM) and CAPS (400 mM) was prepared in H2O. The pH was left unadjusted. Buffered solutions of acyclopa at pH 8.2, 9, and 10 were prepared by adding an aliquot of acyclopa (6.65 mL of a 75.17 mM aqueous stock solution) to a volumetric flask (25 mL) containing CHES/CAPS (12.5 mL). The solution was diluted with concentrated NaOH and H2O to the desired final pH. The final ligand concentration was 20 mM and the final CHES and CAPS concentrations were 200 mM each. Buffered solutions of EDTA were prepared in an analogous manner. For control samples without chelator, CHES/CAPS buffer (200 mM each) was prepared separately for each pH.
Leaching experiments were setup as follows: Various quantities (5±0.3 mg, 10±0.5 mg, and 15±0.5 mg) of (La,Nd,Eu,Dy,Y)OH3 were massed into 2 mL flat-bottomed screw-cap polypropylene tubes. An aliquot of lixiviant solution or buffer only (1 mL) was added to each tube. The samples were rotated end-over-end at 35 RPM and ambient temperature (71±1° F.). At pre-determined time points, the suspensions were centrifuged, and an aliquot of the supernatant (10 μL) was carefully removed and placed into 2% HNO3 (4.990 mL) for ICP-MS analysis. The samples were shaken to break up the pellets and returned to the rotating wheels. At the final time point, the suspensions were filtered via a 96-well filter plate (Pall AcroPrep Advance 0.2 μm Supor Short Tip) and sampled for ICP-MS. The final pH of representative samples was recorded. […] Also, the separation factor was calculated according to the equation below. The leaching of REEs (expressed as percent dissolution) from (La,Nd,Eu,Dy,Y)OH3 by acyclopa as a function of pH (pH 8.2, pH 9, or pH 10) using a CHES/CAPS buffer, RT, 26 h, 20 mM lixiviant, and 5 mg/mL (La,Nd,Eu,Dy,Y)OH3 are shown in FIG. 9. The leaching of REEs (expressed as concentration) from (La,Nd,Eu,Dy,Y)OH3 by acyclopa as a function of solid loading at a pH of 9 using a CHES/CAPS buffer, RT, 26 h, 20 mM lixiviant, and 5-15 mg/mL (La,Nd,Eu,Dy,Y)OH3 are shown in FIG. 10. […]

[2] = Protonation constants and lanthanide complex stabilities by potentiometric titration; assay type: binding
Description: Protonation constants and lanthanide (Ln) stability constants of acyclopa and acyclopa-XL were obtained by potentiometric titration using either a Metrohm Titrando 888 titrator or an 855 Robotic Titrosampler connected to an 805 Dosimat. Both titration systems were equipped with Ross Orion combination electrodes (8103BN, ThermoFisher Scientific), Metrohm 806 exchange units with automatic burets (10 mL), and Tiamo 2.5 software. The titration vessel was fitted with a removable glass cell and thermostated at 25° C. using an Isotemp 500LC recirculating chiller (Fisher Scientific). CO2 was excluded from the titration vessel using a small positive pressure of argon bubbled through 30 wt % KOH. […]
Before every ligand or ligand-metal titration, the electrode was calibrated in terms of the hydrogen-ion concentration by titrating a solution of standardized HCl (0.005 M) containing supporting electrolyte (KCl=0.095 M) with standardized KOH. Data within the pH ranges of 2.3-3.2 and 10.8-11.3 were analyzed using the program Glee (version 3.0.21) to obtain the standard electrode potential (E0) and slope factor. […] Their exact concentrations were determined potentiometrically from the two sharp endpoints of their titration curves using the formula ((VEP2−VEP1)/npKa)*[KOH]. […]

[3] = Recovery and reuse of acyclopa in multiple leach cycles (oxalic acid stripping)
Description: The release of REEs from acyclopa and their subsequent precipitation as REE2(C2O4)3 was investigated as a function of pH and oxalic acid equivalents. Pregnant leach solutions were prepared at pH 8.2 using acyclopa and La(OH)3, and varying equivalents of H2C2O4 were added. The pH of the samples was reduced stepwise to pH 6, 5, 4, and 3 using HCl. The concentration of La remaining in the supernatant at each pH was analyzed by ICP-MS. The release of REEs from acyclopa and their subsequent precipitation as REE2(C2O4)3 as a function of pH and oxalic acid equivalents is shown in FIG. 12.
Next, the ability to reuse acyclopa in multiple leach cycles was investigated. Leaching samples were prepared as described above at pH 8.2 using acyclopa and La(OH)3. […] To this solution, 2 equivalents of oxalic acid were added, and the pH was adjusted to 3 using HCl. The resulting precipitate was removed. The pH of the filtrate was re-adjusted to 8.2 using NaOH, and another portion of La(OH)3 was added. The suspension was stirred for 24 h, and the percent La dissolved was measured by ICP-MS. In subsequent precipitation cycles, only 1 equivalent of oxalic acid was added. Using this method, ˜75% dissolution was maintained over 4 dissolution/precipitation cycles. The results are shown graphically in FIG. 13.

SMILES	selectivity of leaching of REEs (percent dissolution) [1]	Δ log KLa-Lu (difference of stability constants log KML) ([2]; 25° C., ionic strength 0.1 M KCl, La^3+ versus Lu^3+)	affinity for rare-earth elements (in words) ([2]; log KML versus ionic radius, FIG. 6)	percent La dissolved (dissolution of La(OH)3) ([3]; pH 8.2, 24 h, maintained over 4 dissolution/precipitation cycles, ICP-MS, FIG. 13)	initial dissolution of La(OH)3 ([3]; pH 8.2, first leach)	effect of increasing solid loading on La/Y separation ([1]; pH 9, CHES/CAPS buffer, 5-15 mg/mL (La,Nd,Eu,Dy,Y)OH3, FIG. 10)
O=C(O)CN(CCN(CC(=O)O)CC(=O)O)CC(=O)O [EDTA, ethylenediaminetetraacetic acid, reference compound]	fails to demonstrate any selectivity					
O=C(O)c1cccc(CN(CCO)CCOCCOCCN(CCO)Cc2cccc(C(=O)O)n2)n1 [acyclopa, 6,6′-(2,11-bis(2-hydroxyethyl)-5,8-dioxa-2,11-diazadodecane-1,12-diyl)dipicolinic acid]	preferentially leaches large over small REEs	4.27	high affinity for large, light REEs and low affinity for small, heavy REEs	~75%	nearly all of the La(OH)3 was dissolved initially	significantly increases separative leaching of La from Y

— US20240294553A1, “SIZE-SELECTIVE ACYCLIC CHELATORS AND THEIR USE FOR THE RECOVERY OF RARE EARTH ELEMENTS” (UT-Battelle, LLC, priority 2023, published 2024)
